This experiment concerns Lox-IMVI melanoma cell line. As to the kind of experiment: Lox-IMVI anti-proliferative assay (growth inhibition, Cell Titer-Glo). It counts as cell-based, human. The following applies: Homo sapiens. The method in brief: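 First, compound was dispensed as a 10-point 3-fold series (0.5 nM–10 μM, duplicate). Then cells in RPMI + 10% FBS were added and grown 72 h at 37 °C with 0.2% DMSO. Finally, ATP luminescence was read and IC50 calculated versus DMSO control.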

[1] abbreviates: Lox-IMVI melanoma cell line, anti-proliferative assay, read-out: Activity (IC50 activity level).

pIC50: −log10 of the molar value. Where two headings read alike, the source gives them in different places.

Regarding `Cc1c(Cl)ccc(Nc2nc3cnc(NC4CCOCC4)nc3n2[C@H]2CC[C@@H](C(N)=O)CC2)c1F` [Example 102, (1s,4s)-4-(8-(4-chloro-2-fluoro-3-methylphenylamino)-2-(tetrahydro-2H-pyran-4-ylamino)-9H-purin-9-yl)cyclohexanecarboxamide], the pIC50 (IC50 activity level in the cell-based Lox-IMVI anti-proliferative assay, read-out: Activity) is below 6.00.

For the compound `C[C@]1(C(N)=O)CC[C@@H](n2c(Nc3c(Cl)cc(C#N)cc3Cl)nc3cnc(N[C@@H]4CCC[C@@H](O)C4)nc32)CC1` [Example 624, (1S,4s)-4-(8-(2,6-dichloro-4-cyanophenylamino)-2-((1R,3R)-3-hydroxycyclohexylamino)-9H-purin-9-yl)-1-methylcyclohexanecarboxamide], the pIC50 under setting [1] is 6.30 to 6.60.

On to `N#Cc1cc(Cl)c(Nc2nc3cnc(NC[C@@H]4CCCC[C@H]4O)nc3n2[C@H]2CC[C@@H](C(N)=O)CC2)c(Cl)c1` [Example 665, (1R,4s)-4-(8-(2,6-dichloro-4-cyanophenylamino)-2-(((1S,2R)-2-hydroxycyclohexyl)methylamino)-9H-purin-9-yl)cyclohexanecarboxamide], for which the pIC50 under setting [1] was below 6.00.

Values taken from patent US11590139B2, “Substituted aminopurine compounds, compositions thereof, and methods of treatment therewith” (Signal Pharmaceuticals, LLC, priority 2014, dated 2023).
